Data as given in US8883504B2, “Cell differentiation suppressing agent, method of culturing cells using the same, culture solution, and cultured cell line” (Asahi Kasei Kabushiki Kaisha, priority 2003, dated 2014).

Key:
[1] = system: mouse embryonic stem cell line D3ES cell; test: Alkaline phosphatase staining 1; assay type: cell-based
Protocol: For the D3ES cell obtained by the preparation of the mouse ES cell as described in (3) above, 3×10^2 to 1×10^3 cells per well was seeded in […] of the ES cell assay medium in a well of a 96-well cell culture dish (Falcon Corp. made, Cat. No. 3072, USA) coated previously with a 0.1% aqueous gelatin solution. A 10 μl of the differentiation inhibiting agent (A,B,C,D,E,F: A to D were ASINEX Corp. (Russia) made and E to F were purchased from PHARMEKS Corp. (Russia)) of the present invention or ESGRO, which was dissolved in dimethylsulfoxide (DMSO), or water, or the mixture, was added to each well to make 0.4 to 40 μg/mL, and culturing was carried out at 37° C. in 5% CO2 incubator for 7 days. DMSO added to the medium was adjusted to make a final concentration of 0.1% or lower. On the other hand, to a control well was added only DMSO to make the final concentration of 0.1%.
The ES cells were stained by using an alkaline phosphatase kit (SIGMA Diagnostic Corp. made, Cat. No. 86-R). […]

[2] = system: STAT3; test: STAT3 activation assay 1 (pSTAT3-TA-Luc luciferase reporter); assay type: cell-based, mouse; details: D3ES cells, agent 0.4 to 40 μg/mL or ESGRO 10 to 10,000 unit/mL, 6 to 24 hours, FIG. 5
Protocol: For the D3ES cells prepared by the method described in (3) preparation of a mouse ES cell of Example 1, 1×10^5 cells in 500 μL ES medium were seeded in a well of a 24-well cell culture dish (Falcon Corp. made, Cat No. 3047, USA) coated previously with a 0.1% aqueous gelatin solution, followed by culturing at 37° C. in 5% CO2 incubator for 12 hours to 24 hours. Next, by using LipofectAMINE 2000 (Invitrogen Corp. made, USA) by a protocol attached to the product, 0.9 μg per 1 well of pSTAT3-TA-Luc or pTA-Luc vector (Clontech Corp. made, USA) was transfected into the ES cells. In addition, 0.1 μg of an internal control, pRL-TK vector (Promega Corp. made, USA) was transfected at the same time for each well. Following culturing at 37° C. in 5% CO2 incubator for 4 hours, the medium was sucked, and the cells were washed twice with PBS and, then, a 500 μL-ES assay medium was added to each well. […] Next, by using PicaGene Dual SeaPansy (Toyo Ink made, Japan) by the attached protocol, a luminescence signal generated by a luciferase reporter enzyme of each cell was measured.

[3] = system: STAT3; test: STAT3 activation assay 2 (pSTAT3-TA-Luc luciferase reporter); assay type: cell-based, mouse; details: D3ES cells, agent 0.4 to 40 μg/mL or ESGRO 10 to 10,000 unit/mL, 6 to 24 hours, FIG. 12
Protocol: For the D3ES cells prepared by the method described in (3) preparation of the ES cell of Example 1, 1×10^5 cells were seeded on a 24-well cell culture dish (Falcon, Cat. No. 3047, USA) coated previously with a 0.1% aqueous gelatin solution to make the ES cell medium in 500 μL per 1 well followed by culturing at 37° C. in 5% CO2 incubator for 12 hours to 24 hours. Next, by using LipofectAMINE 2000 (Invitrogen Corp. made, USA) by a protocol attached to the product, 0.9 μg/well of pSTAT3-TA-Luc or pTA-Luc vector (Clontech Corp. made, USA) was transfected into the ES cells. On the other hand, 0.1 μg of the internal control, pRL-TK vector (Promega Corp. made, USA) was transfected at the same time for each well. Following culturing at 37° C. in 5% CO2 incubator for 4 hours, the medium was sucked and washed twice with PBS and, then, the 500 μL-ES assay medium was added to each well. […] Next, by using PicaGene Dual SeaPansy (Toyo Ink, Japan) by the attached protocol, the luminescence signal generated by the luciferase reporter enzyme of each cell was measured.

CC(=O)c1ccc(/N=N/C(C(N)=O)=C2/NC(C)(C)Cc3ccccc32)cc1 [compound B, 2-(4-acetyl-phenylazo)-2-(3,3-dimethyl-3,4-dihydro-2H-isoquinoline-1-ylidene)-acetamide]
undifferentiated colony formation compared with ES cells cultured in the presence of ESGRO (positive control) ([1]; compound 4 μg/mL, ESGRO 1000 units/mL): form an undifferentiated colony equal to that of the ES cells cultured in the presence of ESGRO | alkaline phosphatase staining in comparison with ES cells cultured in the absence of ESGRO ([1]; compound B 4 μg/mL, FIG. 4): stained significantly more densely | expression of the luciferase reporter enzyme by pSTAT3-TA-Luc [2]: did not induce the expression of the reporter enzyme | expression of the luciferase reporter enzyme by pSTAT3-TA-Luc [3]: did not induce the expression of the reporter enzyme
